Test results taken from patent publication US20110130380A1, “Heteroaryl Kinase Inhibitors” (priority 2009, published 2011).

biological target: Cdk9/cyclinT1 (Homo sapiens, UniProt P50750); assay: Cdk9/cyclinT1 IMAP Protocol (fluorescence polarization kinase assay); conditions: Cdk9_cyclinT1_IC50, Table V; generated using one of the two Cdk9/cyclinT1 assays (IMAP or Alpha Screen), not stated which; ATP 6 uM
Sequence (P50750 whole entry): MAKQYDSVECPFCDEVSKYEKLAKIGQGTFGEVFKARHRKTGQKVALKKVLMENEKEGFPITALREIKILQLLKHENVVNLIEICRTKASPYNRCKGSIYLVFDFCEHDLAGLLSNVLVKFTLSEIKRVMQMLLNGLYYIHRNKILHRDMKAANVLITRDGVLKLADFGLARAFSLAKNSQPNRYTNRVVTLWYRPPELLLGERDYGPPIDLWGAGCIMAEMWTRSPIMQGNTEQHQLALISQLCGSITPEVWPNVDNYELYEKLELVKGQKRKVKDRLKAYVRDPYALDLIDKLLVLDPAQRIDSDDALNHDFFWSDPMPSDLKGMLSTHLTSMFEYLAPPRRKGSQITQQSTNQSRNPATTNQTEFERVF
Sequence (O60563 whole entry partner): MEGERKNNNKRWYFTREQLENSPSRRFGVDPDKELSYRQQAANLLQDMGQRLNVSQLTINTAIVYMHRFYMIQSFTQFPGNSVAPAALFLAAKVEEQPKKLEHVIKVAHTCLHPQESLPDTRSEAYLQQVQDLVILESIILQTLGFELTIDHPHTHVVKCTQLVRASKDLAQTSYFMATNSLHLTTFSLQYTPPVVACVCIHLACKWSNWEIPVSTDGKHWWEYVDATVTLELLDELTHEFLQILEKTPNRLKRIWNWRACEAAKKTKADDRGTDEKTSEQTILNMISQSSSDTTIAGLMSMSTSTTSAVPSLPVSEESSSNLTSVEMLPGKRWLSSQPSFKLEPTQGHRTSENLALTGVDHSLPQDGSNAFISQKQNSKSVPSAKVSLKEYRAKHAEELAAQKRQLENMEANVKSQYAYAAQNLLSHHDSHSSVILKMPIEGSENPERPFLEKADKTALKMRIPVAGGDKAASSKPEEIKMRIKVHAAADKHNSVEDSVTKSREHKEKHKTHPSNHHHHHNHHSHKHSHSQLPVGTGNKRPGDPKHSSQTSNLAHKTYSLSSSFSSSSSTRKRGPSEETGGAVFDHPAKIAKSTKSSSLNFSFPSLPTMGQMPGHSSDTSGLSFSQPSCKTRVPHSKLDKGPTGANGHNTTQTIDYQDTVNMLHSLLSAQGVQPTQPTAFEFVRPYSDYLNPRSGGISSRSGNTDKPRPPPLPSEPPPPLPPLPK

| Structure (SMILES) | IC50 |
| --- | --- |
| CC(C)S(=O)(=O)N1CCC[C@H](C(=O)Nc2cc(-c3nc(NCC4CCOC(C)(C)C4)ccc3Cl)c(Cl)cn2)C1 (stereo partly drawn) [Example 139, (S)-1-(Propane-2-sulfonyl)-piperidine-3-carboxylic acid {3,5′-dichloro-6-[(2,2-dimethyl-tetrahydro-pyran-4-ylmethyl)-amino]-[2,4′]bipyridinyl-2′-yl}-amide] | < 8 nM |
| C[C@H](Nc1cccc(-c2cc(NC(=O)[C@@H]3CCCNC3)ncc2Cl)n1)C1CCCCC1 [Example 77, (R)-Piperidine-3-carboxylic acid [5′-chloro-6-((S)-1-cyclohexyl-ethylamino)-[2,4′]bipyridinyl-2′-yl]-amide] | 8 nM |
| O=C(Nc1cc(-c2cccc(NC[C@H]3CCCOC3)n2)c(Cl)cn1)[C@@H]1CCCNC1 (single isomer, unassigned) [Example 78] | < 8 nM |
| CS(=O)(=O)N[C@@H]1CC[C@H](C(=O)Nc2cc(-c3nc(NCC4CCOCC4)ccc3Cl)c(Cl)cn2)C1 [Example 109, (1S,3R)-3-Methanesulfonylamino-cyclopentanecarboxylic acid {3,5′-dichloro-6-[(tetrahydro-pyran-4-ylmethyl)-amino]-[2,4′]bipyridinyl-2′-yl}-amide] | < 8 nM |
| CC1(C)CC(CNc2ccc(Cl)c(-c3cc(NC(=O)[C@H]4CNCCO4)ncc3Cl)n2)CCO1 (stereo partly drawn) [Example 133, (R)-Morpholine-2-carboxylic acid {3,5′-dichloro-6-[(2,2-dimethyl-tetrahydro-pyran-4-ylmethyl)-amino]-[2,4′]bipyridinyl-2′-yl}-amide] | < 8 nM |
| O=C(Nc1cc(-c2nc(NCC3CCOCC3)c(Cl)cc2Cl)c(Cl)cn1)[C@@H]1CCCNC1 [Example 134, (R)-Piperidine-3-carboxylic acid {3,5,5′-trichloro-6-[(tetrahydro-pyran-4-ylmethyl)-amino]-[2,4′]bipyridinyl-2′-yl}-amide] | < 8 nM |
| CCS(=O)(=O)N1CCC[C@H](C(=O)Nc2cc(-c3cccc(NCC4CCOCC4)n3)c(Cl)cn2)C1 [Example 92, (S)-1-Ethanesulfonyl-piperidine-3-carboxylic acid {5′-chloro-6-[(tetrahydro-pyran-4-ylmethyl)-amino]-[2,4′]bipyridinyl-2′-yl}-amide] | < 8 nM |
| O=C(Cc1cccnc1)Nc1cc(-c2cccc(NCC3CCOCC3)n2)c(Cl)cn1 [Example 66, N-{5′-Chloro-6-[(tetrahydro-pyran-4-ylmethyl)-amino]-[2,4′]bipyridinyl-2′-yl}-2-pyridin-3-yl-acetamide] | 9 nM |
| C[C@@H]1CC[C@@H](C(=O)Nc2cc(-c3cccc(NC[C@@H]4CCOC(C)(C)C4)n3)c(Cl)cn2)CN1 (single isomer, unassigned) [Example 242] | 1 nM |
| COC(=O)N1CCC[C@H](C(=O)Nc2cc(-c3cccc(NCC4CCS(=O)(=O)CC4)n3)c(Cl)cn2)C1 [Example 152, (S)-3-{5′-Chloro-6-[(1′,1′-dioxo-hexahydro-1-thiopyran-4-ylmethyl)-amino]-[2,4′]bipyridinyl-2′-ylcarbamoyl}-piperidine-1-carboxylic acid methyl ester] | < 8 nM |
| COC(=O)N[C@H]1CC[C@@H](C(=O)Nc2cc(-c3nc(NCC4CCOCC4)ccc3Cl)c(Cl)cn2)C1 [Example 107, ((lS,3R)-3-{3,5′-Dichloro-6-[(tetrahydro-pyran-4-ylmethyl)-amino]-[2,4′]bipyridinyl-2′-ylcarbamoyl}-cyclopentyl)-carbamic acid methyl ester] | < 8 nM |
| CS(=O)(=O)N1CCC[C@@H](C(=O)Nc2cc(-c3cccc(NCC4CCOCC4)n3)c(Cl)cn2)C1 [Example 83, (R)-1-Methanesulfonyl-piperidine-3-carboxylic acid {5′-chloro-6-[(tetrahydro-pyran-4-ylmethyl)-amino]-[2,4′]bipyridinyl-2′-yl}-amide] | 482 nM |
| N[C@@H]1CC[C@H](C(=O)Nc2cc(-c3cccc(NCC4CCOCC4)n3)c(Cl)cn2)C1 [Example 47, (1S,3R)-3-Amino-cyclopentanecarboxylic acid {5′-chloro-6-[(tetrahydro-pyran-4-ylmethyl)-amino]-[2,4′]bipyridinyl-2′-yl}-amide] | < 8 nM |
| O=C(Nc1cc(-c2cccc(NCCN3CCCC3=O)n2)c(Cl)cn1)[C@@H]1CCCNC1 [Example 32, (R)-Piperidine-3-carboxylic acid {5′-chloro-6-[2-(2-oxo-pyrrolidin-1-yl)-ethylamino]-[2,4′]bipyridinyl-2′-yl}-amide] | 19 nM |
| O=C(Nc1cc(-c2cccc(NCC3CCOCC3)n2)c(Cl)cn1)[C@@H]1CCCN(CC(F)(F)F)C1 [Example 11, (R)-1-(2,2,2-Trifluoro-ethyl)-piperidine-3-carboxylic acid {5′-chloro-6-[(tetrahydro-pyran-4-ylmethyl)-amino]-[2,4′]bipyridinyl-2′-yl}-amide] | 770 nM |
| CO[C@H]1CNC[C@@H]1C(=O)Nc1cc(-c2cccc(NCC3C[C@@H](C)O[C@@H](C)C3)n2)c(Cl)cn1 (stereo partly drawn) [Example 171, (3S,4R)-4-Methoxy-pyrrolidine-3-carboxylic acid {5′-chloro-6-[((2R,6S)-2,6-dimethyl-tetrahydro-pyran-4-ylmethyl)-amino]-[2,4′]bipyridinyl-2′-yl}-amide] | 1 nM |
| CN1CCCCC(C(=O)Nc2cc(-c3cccc(NCC4CCOCC4)n3)c(Cl)cn2)C1 (stereo not drawn) [Example 199, 1-Methyl-azepane-3-carboxylic acid {5′-chloro-6-[(tetrahydro-pyran-4-ylmethyl)-amino]-[2,4′]bipyridinyl-2′-yl}-amide] | 51 nM |
| COC[C@H]1CC[C@H](C(=O)Nc2cc(-c3cccc(NCC4CCOCC4)n3)c(Cl)cn2)CN1 (single isomer, unassigned) [Example 236] | 7 nM |

More lines, now with the values ahead:

| IC50 | Structure (SMILES) |
| --- | --- |
| 1 nM | CC1(C)C[C@H](CNc2nc(-c3cc(NC(=O)[C@@H]4CCCNC4)ncc3Cl)ccc2F)CCO1 (single isomer, unassigned) [Example 215] |
| 11 nM | CO[C@@H]1CNC[C@H](C(=O)Nc2cc(-c3cccc(NCC4CCOCC4)n3)c(Cl)cn2)C1 (racemic) [Example 184, (3R,5S)-/(3S,5R)-5-Methoxy-piperidine-3-carboxylic acid {5′-chloro-6-[(tetrahydro-pyran-4-ylmethyl)-amino]-[2,4′]bipyridinyl-2′-yl}-amide] |
| 20 nM | [2H]C([2H])(Nc1cccc(-c2cc(NC(=O)[C@H]3CNCCO3)ncc2Cl)n1)C1CCOCC1 [Example 180, (R)-Morpholine-2-carboxylic acid {5′-chloro-6-[(tetrahydro-pyran-4-yl(dideuteromethyl))-amino]-[2,4′]bipyridinyl-2′-yl}-amide] |
| 1 nM | CC1(C)COC[C@@H](CNc2nc(-c3cc(NC(=O)[C@@H]4CCCNC4)ncc3Cl)ccc2F)O1 (single isomer, unassigned) [Example 263] |
| 27 nM | O=C(Nc1cc(-c2cccc(NCC3CCOCC3)n2)c(Cl)cn1)C1CCOCC1 [Example 63, Tetrahydro-pyran-4-carboxylic acid {5′-chloro-6-[(tetrahydro-pyran-4-ylmethyl)-amino]-[2,4′]bipyridinyl-2′-yl}-amide] |
| < 8 nM | O=C(Nc1cc(-c2nc(NCC3CCOCC3)ccc2Cl)c(F)cn1)[C@@H]1CCCNC1 [Example 123, (R)-Piperidine-3-carboxylic acid {3-chloro-5′-fluoro-6-[(tetrahydro-pyran-4-ylmethyl)-amino]-[2,4′]bipyridinyl-2′-yl}-amide] |
| 2 nM | O=C(Nc1cc(-c2nc(NCC3CCOCC3)ccc2Cl)c(Cl)cn1)C1CNCCOC1 (single isomer, unassigned) [Example 213] |
| 3 nM | C[C@H]1CC[C@H](C(=O)Nc2cc(-c3ccc(F)c(NCC4CCOCC4)n3)c(Cl)cn2)CN1 (single isomer, unassigned) [Example 190] |
| 1 nM | CC1(C)COC(CNc2nc(-c3cc(NC(=O)[C@@H]4CCCNC4)ncc3Cl)ccc2F)CO1 (stereo partly drawn) [Example 255, (R)-Piperidine-3-carboxylic acid {5′-chloro-6-[(5,5-dimethyl-[1,4]dioxan-2-ylmethyl)-amino]-5-fluoro-[2,4′]bipyridinyl-2′-yl}-amide] |
| 15 nM | O=C(Nc1cc(-c2cccc(NCC3CCOCC3)n2)c(Cl)cn1)[C@H]1CNC[C@@H]1O [Example 122, (3S,4R)-4-Hydroxy-pyrrolidine-3-carboxylic acid {5′-chloro-6-[(tetrahydro-pyran-4-ylmethyl)-amino]-[2,4′]bipyridinyl-2′-yl}-amide] |
| 16 nM | O=C(Nc1cc(-c2cccc(NCC3CCOCC3)n2)c(Cl)cn1)[C@H]1CNC[C@H]1F [Example 85, (3R,4S)-4-Fluoro-pyrrolidine-3-carboxylic acid {5′-chloro-6-[(tetrahydro-pyran-4-ylmethyl)-amino]-[2,4′]bipyridinyl-2′-yl}-amide] |
| 9 nM | C[C@@H]1CNC[C@H](C(=O)Nc2cc(-c3cccc(NCC4CCOCC4)n3)c(Cl)cn2)C1 (racemic) [Example 125, (3R,5S)-/(3S,5R)-5-Methyl-piperidine-3-carboxylic acid {5′-chloro-6-[(tetrahydro-pyran-4-ylmethyl)-amino]-[2,4′]bipyridinyl-2′-yl}-amide] |
| 5 nM | O=C(Nc1cc(-c2ccc(F)c(NCC3CCOCC3)n2)c(Cl)cn1)[C@H]1CNCCO1 [Example 205, (R)-Morpholine-2-carboxylic acid {5′-chloro-5-fluoro-6-[(tetrahydro-pyran-4-ylmethyl)-amino]-[2,4′]bipyridinyl-2′-yl}-amide] |

same assay, conditions: Cdk9_cyclinT1_IC50, generated using one of the two Cdk9/cyclinT1 assays (IMAP or Alpha Screen), not specified per value; ATP 6 uM

| IC50 | Structure (SMILES) |
| --- | --- |
| 103 nM | Cc1ncc(-c2cc(NC(=O)[C@@H]3CCCNC3)ncc2Cl)cc1NCC1CCOCC1 [Example 311, (R)-Piperidine-3-carboxylic acid {5′-chloro-6-methyl-5-[(tetrahydro-pyran-4-ylmethyl)-amino]-[3,4′]bipyridinyl-2′-yl}-amide] |
| 376 nM | O=C(Nc1cc(-c2cccnc2)c(Cl)cn1)[C@@H]1CCCNC1 [Example 305, (R)-Piperidine-3-carboxylic acid (5′-chloro-[3,4′]bipyridinyl-2′-yl)-amide] |
